Measurements taken from US11155517B2, “4-substituted phenylamine derivatives and their use to protect crops by fighting undesired phytopathogenic micoorganisms” (PI INDUSTRIES LTD., priority 2016, dated 2021).

How the values were obtained:
Pyricularia oryzae [1] = experiment: microbe, parasite or virus in culture; assay type: cell-based; details: 168 h, read-out: % control compared to the untreated check (radial growth)
Rhizoctonia solani = Rhizoctonia solani (rice sheath blight/potato black scurf) in vitro test, radial growth on Potato Dextrose Agar; assay type: cell-based; details: 168 h, 300 ppm, seven days, 25° C., read-out: % control compared to the untreated check (radial growth)
Botrytis cinerea = Botrytis cinerea (gray mold) in vitro test, radial growth on Potato Dextrose Agar; assay type: cell-based; details: 168 h, 300 ppm, seven days, 22° C., read-out: % (control) compared to the untreated check (radial growth)
Alternaria solani [2] = experiment: Alternaria solani (early blight of tomato/potato) in vitro test, radial growth on Potato Dextrose Agar; assay type: cell-based; details: 168 h, 300 ppm, seven days, 25° C., read-out: % control compared to the untreated check (radial growth)
Colletotrichum capsici = Colletotrichum capsici (anthracnose) in vitro test, radial growth on Potato Dextrose Agar; assay type: cell-based; details: Colletotrichum truncatum, 168 h; 300 ppm; seven days, 25° C.; read-out: % control compared to the untreated check (radial growth)
Septoria lycopersici = Septoria lycopersici (leaf spot of tomato) in vitro test, radial growth on Potato Dextrose Agar; assay type: cell-based; details: 168 h, seven days, 25° C., read-out: % control compared to the untreated check (radial growth)
Fusarium culmorum [3] = experiment: Fusarium culmorum (foot rot of cereals) in vitro test, radial growth on Potato Dextrose Agar; assay type: cell-based; details: Fusarium culmorum, 168 h, read-out: % control compared to the untreated check (radial growth)
Botrytis cinera = experiment: Greenhouse Botrytis cinera test in tomato, preventive; assay type: in vivo; details: 24 h, plants sprayed one day before inoculation, read-out: Efficacy (% control), disease severity vs untreated check
Alternaria solani [4] = experiment: Greenhouse Alternaria solani test in tomato, preventive; assay type: in vivo; details: 24 h, tomato plants sprayed one day before inoculation, read-out: Efficacy (% control), disease severity vs untreated check
Method: Compounds were dissolved in 2% DMSO/Acetone & then mixed with water to calibrated spray volume of 50 ml. This 50 ml spray solution was poured into the spray bottles for further applications. To test the preventive activity of compounds, healthy young Tomato plants raised in the greenhouse were sprayed with active compound preparation at the stated application rates inside the spray cabinets using hallowcone nozzles. One day after treatment, the plants were inoculated with spore suspension (2% Malt) containing 0.24×10^6 Alternaria solani inoculum. The inoculated plants were then kept in greenhouse chamber at 22-24° C. temperature and 90-95% relative humidity for disease expression. […] Efficacy (% control) of the compounds was calculated by comparing the disease rating in the treatment with untreated control. The sprayed plants were also assessed for compound's phytotoxic effects by recording symptoms like necrosis, chlorosis and stunting.

Fusarium culmorum [5] = experiment: Greenhouse Fusarium culmorum test in wheat, preventive; assay type: in vivo; details: 24 h, read-out: Efficacy (% control), disease severity vs untreated check
Method: Compounds were dissolved in 2% DMSO/Acetone & then mixed with water to calibrated spray volume of 50 ml. This 50 ml spray solution was poured into the spray bottles for further applications.
To test the preventive activity of compounds, healthy young wheat plants raised in the greenhouse were sprayed with active compound preparation at the stated application rates inside the spray cabinets using hallowcone nozzles. One day after treatment, the plants were inoculated with spore suspension (2% Malt) containing 2×10^6 Fusarium culmorum inoculum. The inoculated plants were then kept in greenhouse chamber at 24° C. temperature and 80-90% relative humidity for disease expression.
A visual assessment of compound's performance was carried by rating the disease severity (0-100% scale) on treated plants on 3, 7, 10 and 15 days after application. Efficacy (% control) of the compounds was calculated by comparing the disease rating in the treatment with untreated control. The sprayed plants were also assessed for compound's phytotoxic effects by recording symptoms like necrosis, chlorosis and stunting.

Pyricularia oryzae [6] = experiment: whole plant or invertebrate; assay type: in vivo; details: 24 h, read-out: Efficacy (% control), disease severity vs untreated check

SMILES | inhibition of growth at 300 ppm (Pyricularia oryzae [1]) | inhibition of growth at 300 ppm (Rhizoctonia solani) | inhibition of growth at 300 ppm (Botrytis cinerea) | inhibition of growth at 300 ppm (Alternaria solani [2]) | inhibition of growth at 300 ppm (Colletotrichum capsici) | inhibition of growth at 300 ppm (Septoria lycopersici) | inhibition of growth at 300 ppm (Fusarium culmorum [3]) | pest or weed control at 500 ppm (Botrytis cinera) | pest or weed control at 500 ppm (Alternaria solani [4]) | pest or weed control at 500 ppm (Fusarium culmorum [5]) | pest or weed control at 500 ppm (Pyricularia oryzae [6])
CCN(C)C=Nc1cc(C)c(Cc2ccc(C)cc2)cc1C [Compound 9, N′-(2,5-dimethyl-4-(4-methylbenzyl)phenyl)-N-ethyl-N-methylformimidamide] | > 75% | > 80% | > 80% | > 75% | > 80% | > 70% | 75% | 70 to 100% | 70 to 100% |  | 
CCN(C)C=Nc1cc(C)c(Cc2ccccc2SC)cc1C [Compound 23, N′-(2,5-dimethyl-4-(2-(methylthio)benzyl)phenyl)-N-ethyl-N-methylformimidamide] | > 75% | > 80% | > 80% | > 75% | > 80% | > 70% | 75% | 70 to 100% | 70 to 100% | 70 to 100% | 
CCN(C)C=Nc1cc(C)c(Cc2cc(C)ccc2C)cc1C [Compound 26, N′-(4-(2,5-dimethylbenzyl)-2,5-dimethylphenyl)-N-ethyl-N-methylformimidamide] | > 75% | > 80% | > 80% | > 75% | > 80% | > 70% | 75% |  |  |  | 70 to 100%
CCN(C)C=Nc1cc(C)c(Cc2cccc(Br)c2F)cc1C [Compound 27, N′-(4-(3-bromo-2-fluorobenzyl)-2,5-dimethylphenyl)-N-ethyl-N-methylformimidamide] | > 75% | > 80% | > 80% | > 75% | > 80% | > 70% | 75% | 70 to 100% | 70 to 100% |  | 
CCN(C)C=Nc1cc(C)c(Cc2cccc(F)c2)cc1C [Compound 29, N-ethyl-N′-(4-(3-fluorobenzyl)-2,5-dimethylphenyl)-N-methylformimidamide] | > 75% | > 80% | > 80% | > 75% | > 80% | > 70% | 75% | 70 to 100% | 70 to 100% |  | 
CCN(C)C=Nc1cc(C)c(Cc2ccccc2C)cc1C [Compound 32, N′-(2,5-dimethyl-4-(2-methylbenzyl)phenyl)-N-ethyl-N-methylformimidamide] | > 75% | > 80% | > 80% | > 75% | > 80% | > 70% | 75% | 70 to 100% | 70 to 100% | 70 to 100% | 
Cc1cc(N=CN2CCCCC2)c(C)cc1Cc1ccc(F)c(Cl)c1 [Compound 35, N-(4-(3-chloro-4-fluorobenzyl)-2,5-dimethylphenyl)-1-(piperidin-1-yl)methanimine] | > 75% | > 80% | > 80% | > 75% | > 80% | > 70% |  |  | 70 to 100% | 70 to 100% | 
CNC=Nc1cc(C)c(Cc2cccc(Br)c2F)cc1C [Compound 41, N′-(4-(3-bromo-2-fluorobenzyl)-2,5-dimethylphenyl)-N-methylformimidamide] | > 75% | > 80% | > 80% | > 75% | > 80% | > 70% | 75% |  | 70 to 100% | 70 to 100% | 
CNC=Nc1cc(C)c(Cc2cccc(F)c2)cc1Cl [Compound 42, N′-(2-chloro-4-(3-fluorobenzyl)-5-methylphenyl)-N-methylformimidamide] | > 75% | > 80% | > 80% | > 75% | > 80% | > 70% | 75% |  | 70 to 100% | 70 to 100% | 
CCN(C)C=Nc1cc(C)c(Cc2ccc(C)cc2)cc1Cl [Compound 44, N′-(2-chloro-5-methyl-4-(4-methylbenzyl)phenyl)-N-ethyl-N-methylformimidamide] | > 75% | > 80% | > 80% | > 75% | > 80% | > 70% | 75% |  |  |  | 70 to 100%
CCN(C)C=Nc1cc(C)c(Cc2cccc(OC(F)(F)F)c2)cc1C [Compound 51, N′-(2,5-dimethyl-4-(3-(trifluoromethoxy)benzyl)phenyl)-N-ethyl-N-methylformimidamide] | > 75% | > 80% | > 80% | > 75% | > 80% | > 70% | 75% |  |  |  | 70 to 100%
CCN(C)C=Nc1cc(C)c(Cc2cccc(C)c2C)cc1C [Compound 112, N′-(4-(2,3-dimethylbenzyl)-2,5-dimethylphenyl)-N-ethyl-N-methylformimidamide] | > 75% | > 80% |  | > 75% | > 80% | > 70% | 75% |  |  |  | 70 to 100%
CCN(C)C=Nc1cc(C)c(Cc2ccc(Cl)c(C)c2)cc1Cl [Compound 120, N′-(2-chloro-4-(4-chloro-3-methylbenzyl)-5-methylphenyl)-N-ethyl-N-methylformimidamide] | > 75% | > 80% | > 80% | > 75% | > 80% |  | 75% |  |  |  | 70 to 100%
CCN(C)C=Nc1cc(C)c(Cc2cc(F)cc(Cl)c2)cc1C [Compound 135, N′-(4-(3-chloro-5-fluorobenzyl)-2,5-dimethylphenyl)-N-ethyl-N-methylformimidamide] | > 75% | > 80% | > 80% | > 75% | > 80% | > 70% |  |  |  |  | 70 to 100%
CCN(C)C=Nc1cc(Cl)c(Cc2cccc(F)c2)cc1Cl [Compound 148, N′-(2,5-dichloro-4-(3-fluorobenzyl)phenyl)-N-ethyl-N-methylformimidamide] | > 75% |  |  | > 75% |  |  |  |  |  |  | 70 to 100%
CCN(C)C=Nc1cc(C)c(Cc2cc(Cl)ccc2Cl)cc1C [Compound 160, N′-(4-(2,5-dichlorobenzyl)-2,5-dimethylphenyl)-N-ethyl-N-methylformimidamide] | > 75% | > 80% | > 80% | > 75% | > 80% | > 70% | 75% |  | 70 to 100% | 70 to 100% | 
